“Also recorded” adds a separate entry of the source.
What was measured:
α-glucosidase = α-glucosidase (Saccharomyces cerevisiae, UniProt P53341); experiment: Assay for α-glucosidase inhibitory activity; type: biochemical; settings: for inhibitory effect against α-glucosidase compared with acarbose, in words: versus the clinical α-glucosidase inhibitor acarbose
Experimental: All of the tests for α-glucosidase inhibitory activity were according to a previously described method. […] The reaction was monitored spectrophotometrically by measuring the absorbance at 400 nm for 1-min intervals. […] The IC50 values of the compounds were calculated by nonlinear regression analysis and expressed as the mean ± SD of two distinct experiments. Kinetic parameters were determined using the Lineweaver-Burk double-reciprocal plot method at increasing concentrations of substrates and inhibitors.

α-glucosidase, sequence (P53341 whole entry): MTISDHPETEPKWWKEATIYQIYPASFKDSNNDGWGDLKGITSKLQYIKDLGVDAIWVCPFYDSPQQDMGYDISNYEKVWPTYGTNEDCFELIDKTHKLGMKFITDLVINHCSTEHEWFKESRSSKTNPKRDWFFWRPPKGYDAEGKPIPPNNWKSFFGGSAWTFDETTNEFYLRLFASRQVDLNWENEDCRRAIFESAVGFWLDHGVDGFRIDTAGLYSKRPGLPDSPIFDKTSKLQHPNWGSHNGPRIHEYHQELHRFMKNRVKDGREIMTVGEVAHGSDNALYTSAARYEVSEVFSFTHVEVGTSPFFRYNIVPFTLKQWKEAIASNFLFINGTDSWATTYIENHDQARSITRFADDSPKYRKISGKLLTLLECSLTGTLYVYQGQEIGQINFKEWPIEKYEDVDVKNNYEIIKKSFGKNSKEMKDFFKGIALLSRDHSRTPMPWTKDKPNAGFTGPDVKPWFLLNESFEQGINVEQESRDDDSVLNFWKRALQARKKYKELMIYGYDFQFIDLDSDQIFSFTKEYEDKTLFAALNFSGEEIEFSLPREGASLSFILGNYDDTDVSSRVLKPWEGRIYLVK

| melting point | inhibitory effect against α-glucosidase compared with acarbose, in words (α-glucosidase) | α-glucosidase inhibitory activity, in words (α-glucosidase) | Structure (SMILES) | inhibition type of α-glucosidase (kinetic analysis) (α-glucosidase; Lineweaver-Burk plot method) |
| --- | --- | --- | --- | --- |
| 121.1 to 121.6 °C | more potent inhibitory effects | – | CC=Cc1cc2c(o1)C(=O)C(C)(OC(=O)c1c(C)cc(O)cc1O)C(O)C2 (stereo not shown) [Compound 1, aspergifuranone] | noncompetitive inhibitor; also recorded: noncompetitive inhibition |
| 174.4 to 174.9 °C | more potent inhibitory effects | moderate inhibitory activities | COC1(C)OC(=O)c2c(cc(O)c(C)c2O)C1O (stereo not shown) [Compound 2] | – |
| 201.2 to 201.9 °C | – | – | CCC[C@@]1(O)OC(=O)c2c1cc(O)c(O)c2C [Compound 4, (R)-3-demethylpurpurester A] | – |
| 134.2 to 134.8 °C | – | – | COC1(C)OC(=O)c2c(cc(O)c(C)c2O)C1=O (stereo not shown) [Compound 3] | – |
| – | more potent inhibitory effects | moderate inhibitory activities | Cc1c(O)cc2c(c1O)C(=O)O[C@@H]2[C@H](C)O [Compound 6, pestaphthalides A] | – |
